Drawing on PubChem BioAssay (NCI), this text covers TGI and GI50 for 26 compounds.

Structures are written as SMILES.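 Five compound concentrations were applied to cells in 96-well plates for 48 hours; endpoints were derived by simple linear interpolation of the resulting dose-response curve. Abbreviation: GI50, concentration required for 50% inhibition of growth. TGI: concentration producing complete growth inhibition.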

Test systems include ACHN renal; HCC-2998 colon; M19-MEL melanoma; RXF 393 renal; SK-MEL-28 melanoma; SNB-78 CNS; UACC-257 melanoma; DMS 273 small cell lung; RXF-631 renal; HS 578T breast; MCF7 breast; MDA-MB-231 breast.
Holding throughout (experiment): NCI anticancer screen, dose series, 48 h

Take `CC1CCC2(NC1)OC1CC3[C@@H]4CC=C5C=CCC[C@]5(C)C4CC[C@]3(C)C1C2C` (stereo not given in full): the TGI in the assay with ACHN renal was 44.6 µM; in the assay on HCC-2998 colon, 31.4 µM; with M19-MEL melanoma, above 100 µM; with RXF 393 renal, above 100 µM; with SK-MEL-28 melanoma, 30 µM; with SNB-78 CNS it was above 100 µM. Also, in the assay with UACC-257 melanoma, the TGI came out at 49 µM.

As to `CNS(=O)(=O)NN(C)S(=O)(=O)c1ccc(Cl)cc1`, the TGI in the assay on ACHN renal, in the assay on DMS 273 small cell lung, in the assay on HCC-2998 colon, in the assay on M19-MEL melanoma, in the assay with RXF 393 renal and in the assay with RXF-631 renal was above 100 µM each time. The same compound showed a TGI in the assay on UACC-257 melanoma above 100 µM.

`CC1=C(C)CC2(SC1)C(=O)c1ccccc1C2=O`: the TGI in the assay with ACHN renal, with DMS 273 small cell lung, with HCC-2998 colon, with M19-MEL melanoma, in the assay on RXF 393 renal and in the assay on RXF-631 renal was above 100 µM throughout. Further, the TGI in the assay on SNB-78 CNS and in the assay with UACC-257 melanoma was above 100 µM in each case.

As to `O=C(CC1(O)C(=O)Nc2ccc(Br)cc21)c1ccc(Cl)cc1` (stereo not given), the TGI in the assay on ACHN renal was above 100 µM; in the assay on RXF 393 renal, above 100 µM; with RXF-631 renal, above 100 µM; in the assay on SK-MEL-28 melanoma, above 100 µM; in the assay on SNB-78 CNS, above 100 µM; in the assay on UACC-257 melanoma, 98 µM.

For `O=c1[nH]c(=O)n(C2CC(O)C(CO)O2)cc1C(OCC(F)(F)F)OCC(F)(F)F` (stereo not given), the TGI in the assay with ACHN renal, in the assay with DMS 273 small cell lung, in the assay with HCC-2998 colon, in the assay with M19-MEL melanoma, in the assay on RXF 393 renal and with RXF-631 renal was above 100 µM throughout. Besides, the TGI with SK-MEL-28 melanoma, in the assay on SNB-78 CNS and in the assay with UACC-257 melanoma was above 100 µM each time.

Take `CCOC(=O)C(=O)C1C(=O)Nc2ccccc21` (stereo not given): the TGI with ACHN renal, in the assay with DMS 273 small cell lung, in the assay with HCC-2998 colon, in the assay on M19-MEL melanoma, in the assay with RXF 393 renal and in the assay with RXF-631 renal was above 100 µM throughout. The TGI in the assay on SK-MEL-28 melanoma and in the assay with UACC-257 melanoma was above 100 µM throughout.

Take `CC(C)COC(=O)N1N=NC2C3OC(CC3=O)C21` (stereo not given): the TGI in the assay with ACHN renal, in the assay with DMS 273 small cell lung, in the assay on HCC-2998 colon, in the assay with M19-MEL melanoma, in the assay with RXF 393 renal and in the assay with SK-MEL-28 melanoma was above 100 µM in each case. Besides, the TGI in the assay on UACC-257 melanoma was above 100 µM.

Regarding `O=C1O[C@H](C(Cl)(Cl)Cl)N2CCCC12` (stereo not given in full), the TGI with ACHN renal, in the assay on DMS 273 small cell lung, with M19-MEL melanoma, with RXF 393 renal, in the assay with SK-MEL-28 melanoma and with UACC-257 melanoma was above 100 µM throughout.

As to `O=c1[nH]c(-c2ccccc2)nc2ccc(Cl)cc12`, the TGI in the assay on ACHN renal, in the assay on DMS 273 small cell lung, in the assay with HCC-2998 colon, in the assay on M19-MEL melanoma, in the assay with RXF 393 renal and in the assay on SK-MEL-28 melanoma was above 100 µM in each case. In addition, the TGI in the assay with SNB-78 CNS and with UACC-257 melanoma was above 100 µM throughout.

For `CCNc1c(C(=O)N(CC)CC)c(=O)[nH]c2ncccc12`, the TGI in the assay with ACHN renal, with DMS 273 small cell lung, in the assay with HCC-2998 colon, in the assay with M19-MEL melanoma, in the assay with RXF 393 renal and in the assay with SK-MEL-28 melanoma was above 100 µM each time. For the same compound, the TGI with SNB-78 CNS and with UACC-257 melanoma was above 100 µM each time.

As for `CS(=O)(=O)N(CCC#N)c1ccc(/C=N/NC(=O)CC(=O)Nc2cccc(Cl)c2)cc1`, the TGI in the assay on ACHN renal, with DMS 273 small cell lung, with HCC-2998 colon, in the assay with M19-MEL melanoma, with RXF 393 renal and in the assay on SK-MEL-28 melanoma was above 100 µM throughout. Further, the TGI with SNB-78 CNS and in the assay on UACC-257 melanoma was above 100 µM in each case.

For `CCN(CC)c1ccc(N=C2C=CC(=O)c3ncccc32)c(C)c1`, the TGI with ACHN renal was determined as 12.7 µM; in the assay on DMS 273 small cell lung, 20.6 µM; in the assay with HCC-2998 colon, 24.2 µM; with M19-MEL melanoma it was 22.6 µM; with RXF 393 renal it was 12.6 µM; in the assay with RXF-631 renal it was 28.6 µM. For the same compound, the TGI in the assay with SK-MEL-28 melanoma is 24.5 µM; in the assay on SNB-78 CNS, 31.2 µM; in the assay on UACC-257 melanoma it was 15 µM.

Take `O=C1CCC2CCc3cccc4oc1c2c34` (stereo not given): the TGI in the assay on ACHN renal, in the assay with DMS 273 small cell lung, in the assay with HCC-2998 colon, in the assay on M19-MEL melanoma, with RXF 393 renal and in the assay with SK-MEL-28 melanoma was above 100 µM in each case. For the same compound, the TGI with SNB-78 CNS and with UACC-257 melanoma was above 100 µM each time.

`Cc1ccc(C(=O)O/N=C2/CCCCC2CN(C)C)cc1` (stereo not given): the TGI with ACHN renal, with DMS 273 small cell lung, in the assay on HCC-2998 colon, in the assay with M19-MEL melanoma, in the assay with RXF 393 renal and in the assay on RXF-631 renal was above 100 µM throughout. The TGI in the assay with SK-MEL-28 melanoma, in the assay on SNB-78 CNS and with UACC-257 melanoma was above 100 µM throughout.

Turning to `N#CCCN(CCC#N)c1ccc(/C=C2\N=C(COc3ccc(Cl)cc3Cl)OC2=O)cc1`, the TGI in the assay with DMS 273 small cell lung, in the assay on HCC-2998 colon, with M19-MEL melanoma, in the assay on RXF-631 renal, with SK-MEL-28 melanoma and in the assay with SNB-78 CNS was above 100 µM throughout. The compound further returned a TGI with UACC-257 melanoma above 100 µM.

`O=C(O)CNS(=O)(=O)c1ccc(NC(=O)c2ccc(F)cc2)cc1`: the TGI with ACHN renal, with DMS 273 small cell lung, with HCC-2998 colon, in the assay with M19-MEL melanoma, with RXF 393 renal and in the assay on RXF-631 renal was above 100 µM in each case. In addition, the TGI in the assay with SK-MEL-28 melanoma and in the assay with UACC-257 melanoma was above 100 µM throughout.

`Cn1ccnc1C(c1nccn1C)C(C)(C)[N+](=O)[O-]`: the TGI with ACHN renal, with DMS 273 small cell lung, in the assay with HCC-2998 colon, with M19-MEL melanoma, in the assay on RXF 393 renal and with RXF-631 renal was above 100 µM each time. Further, the TGI in the assay on SK-MEL-28 melanoma, in the assay with SNB-78 CNS and with UACC-257 melanoma was above 100 µM each time.

Regarding `CCN(CC)CC(=O)/C=C/c1ccc(C)cc1`, the TGI with ACHN renal turned out to be 35.1 µM; in the assay with DMS 273 small cell lung it was 55 µM; in the assay with HCC-2998 colon, 31.7 µM; with M19-MEL melanoma, 32.7 µM; in the assay with RXF 393 renal, 44.2 µM; with SK-MEL-28 melanoma, 43 µM. Moreover, the TGI was above 100 µM in the assay on SNB-78 CNS and 46 µM with UACC-257 melanoma.

Regarding `COc1ccccc1/C=C1\CCC(CNc2ccc(Cl)cc2)C1=O` (stereo not given), the TGI in the assay on ACHN renal turned out to be 14.6 µM; with DMS 273 small cell lung, 20.2 µM; in the assay with HCC-2998 colon it was 18.8 µM; in the assay with M19-MEL melanoma, 33.1 µM; in the assay with RXF 393 renal, 30.3 µM; in the assay with SK-MEL-28 melanoma, 26.4 µM. In addition, the TGI is 54.5 µM with SNB-78 CNS and 26.7 µM in the assay on UACC-257 melanoma.

For `C=CCC12CCC(=O)C=C1CCC1(C2)OCCO1` (stereo not given), the TGI with ACHN renal, in the assay with DMS 273 small cell lung, with HCC-2998 colon, in the assay on M19-MEL melanoma, with RXF 393 renal and with RXF-631 renal was above 100 µM each time. For the same compound, the TGI in the assay with SK-MEL-28 melanoma, in the assay with SNB-78 CNS and in the assay on UACC-257 melanoma was above 100 µM in each case.

Regarding `OCCN(CCO)c1cccc(N(CCO)CCO)c1`, the TGI in the assay with ACHN renal, in the assay on DMS 273 small cell lung, with M19-MEL melanoma, in the assay with RXF 393 renal, in the assay with RXF-631 renal and in the assay with SK-MEL-28 melanoma was above 100 µM each time. Besides, the TGI in the assay with SNB-78 CNS and in the assay with UACC-257 melanoma was above 100 µM throughout.

Take `N=S(=O)(c1ccccc1)c1ccccc1[N+](=O)[O-]` (stereo not given): the TGI with ACHN renal, in the assay with DMS 273 small cell lung, in the assay with HCC-2998 colon, in the assay with M19-MEL melanoma, in the assay with RXF 393 renal and in the assay on RXF-631 renal was above 100 µM throughout. For the same compound, the TGI in the assay with SNB-78 CNS and with UACC-257 melanoma was above 100 µM each time.

As to `Oc1ccc2occ3c2c1CCC3`, the TGI with ACHN renal, in the assay on DMS 273 small cell lung, in the assay on HCC-2998 colon, in the assay with M19-MEL melanoma, in the assay with RXF 393 renal and with RXF-631 renal was above 100 µM throughout. Besides, the TGI in the assay on SK-MEL-28 melanoma, in the assay with SNB-78 CNS and in the assay on UACC-257 melanoma was above 100 µM each time.

Take `OCCCCC#Cc1ccccc1C#Cc1ccccc1F`: the GI50 is 25.5 µM in the assay with ACHN renal; 17.8 µM in the assay with HCC-2998 colon; 27.5 µM in the assay with HS 578T breast; 42.1 µM in the assay on MCF7 breast; 17 µM with MDA-MB-231 breast; 7.63 µM with RXF 393 renal. Besides, the GI50 in the assay with SK-MEL-28 melanoma is 27.3 µM; in the assay on UACC-257 melanoma it was 18.9 µM. Moreover, the TGI with ACHN renal is 53.6 µM; in the assay with HCC-2998 colon it was 33 µM; with HS 578T breast, 71.9 µM; with MCF7 breast, above 100 µM; in the assay on MDA-MB-231 breast it was 36.6 µM; in the assay with RXF 393 renal, 25.6 µM. The TGI stood at 72.9 µM with SK-MEL-28 melanoma and 39.2 µM with UACC-257 melanoma.

Regarding `CN(C)c1ccc(/C=C/C(=O)C(C)(C)C)cc1Br`, the TGI was above 100 µM in the assay on ACHN renal; 73.9 µM in the assay with HCC-2998 colon; 50.9 µM with M19-MEL melanoma; 47.7 µM in the assay on SK-MEL-28 melanoma; above 100 µM with SNB-78 CNS; 61.9 µM in the assay on UACC-257 melanoma.

Regarding `CCCCCCCCCCCCCCCC(=O)OCC1OC(n2cnc3c(=S)nc(N)[nH]c32)C(OC(=O)CCCCCCCCCCCCCCC)C1OC(=O)CCCCCCCCCCCCCCC` (stereo not given), the GI50 in the assay with ACHN renal is 11.8 µM; in the assay with HCC-2998 colon, 6.88 µM; with HS 578T breast it was 13 µM; with MCF7 breast, 1.65 µM; in the assay with MDA-MB-231 breast, 2.66 µM; in the assay with RXF 393 renal it was 8.09 µM. For the same compound, the figures for the GI50 with SK-MEL-28 melanoma and in the assay on UACC-257 melanoma were above 39 µM and above 50 µM, respectively. For the same compound, the TGI in the assay with ACHN renal was above 50 µM; in the assay on HCC-2998 colon, above 50 µM; in the assay with HS 578T breast it was above 50 µM; in the assay with MCF7 breast, above 26.1 µM; in the assay on MDA-MB-231 breast, above 22.1 µM; with RXF 393 renal it was above 50 µM. The TGI in the assay on SK-MEL-28 melanoma and in the assay with UACC-257 melanoma was above 50 µM throughout.
